These compounds were tested against T1, GLP-1 receptor (Homo sapiens, UniProt P43220) (assay: Agonist activity against GLP-1 receptor, CRE-luciferase reporter (ONE-Glo) in CHO-K1/CRE-luc/GLP-1 receptor cells). Conditions: 6 h incubation, luciferase readout.
T1 construct: expressed in transfected cells
Assay type: cell-based
From the text: This experiment was intended to test the agonist activity of the compound molecules against the GLP-1 receptor and evaluate the in vitro activity of the molecules according to EC50. The experiment adopted a ONE-Glo™ Luciferase Assay System (Promega, E6110). Under the action of compound molecules, GLP-1R downstream signaling pathways were activated to cause elevated cAMP level. The combination of cAMP and CRE could start the transcription expression of CRE downstream luciferase genes, the luciferase could emit fluorescence when reacting with substrates thereof, and the activity of the compound for agonizing GLP-1 receptors was reflected by measuring fluorescence signals through a ONE-Glo™ reagent.
Stably-expressed CHO-K1/CRE-luc/GLP-1 receptor cell strains (self-construction of GLP-1 receptor plasmid; CRE-luc plasmid Promega E8471) was constructed. CHO-K1/CRE-luc/GLP-1 receptor cells were digested, and resuspended after centrifugation. Single cell suspension was uniformly mixed, and adjusted to a viable cell density of 2.5×10^5 cell/mL with a cell culture medium (DME/F-12+10% FBS), and the resulting solution was added to a 96-well cell culture plate at 90 μL/well (Corning, #3903). The plate was incubated in an incubator for 16 h (37° C., 5% CO2).
The compound was dissolved in DMSO to prepare a stock solution with an initial concentration of 20 mM. The starting concentration of the small molecule compound was 0.2 mM, and the compound underwent 3-fold serial dilution for a total of 10 concentration points, with DMSO at the 11th point. To another 96-well plate was added 95 μL of cell culture medium (DME/F-12+10% FBS), 5 μL of test samples with different concentrations were added to each well, followed by uniform mixing, and then 10 μL of test samples with different concentrations were added to each well, with two duplicate wells set for each sample. The plate was incubated in an incubator for 6 h (37° C., 5% CO2). The 96-well cell culture plate was taken out, and 100 μL of ONE-Glo™ reagent was added to each well, followed by incubation at room temperature for 10 min. The plate was placed in a microplate reader (EnVision 2105, PE) for determination of chemiluminescence.
Data were processed and analyzed using Microsoft Excel and Graphpad Prism 5.

T1 sequence (P43220 24-463): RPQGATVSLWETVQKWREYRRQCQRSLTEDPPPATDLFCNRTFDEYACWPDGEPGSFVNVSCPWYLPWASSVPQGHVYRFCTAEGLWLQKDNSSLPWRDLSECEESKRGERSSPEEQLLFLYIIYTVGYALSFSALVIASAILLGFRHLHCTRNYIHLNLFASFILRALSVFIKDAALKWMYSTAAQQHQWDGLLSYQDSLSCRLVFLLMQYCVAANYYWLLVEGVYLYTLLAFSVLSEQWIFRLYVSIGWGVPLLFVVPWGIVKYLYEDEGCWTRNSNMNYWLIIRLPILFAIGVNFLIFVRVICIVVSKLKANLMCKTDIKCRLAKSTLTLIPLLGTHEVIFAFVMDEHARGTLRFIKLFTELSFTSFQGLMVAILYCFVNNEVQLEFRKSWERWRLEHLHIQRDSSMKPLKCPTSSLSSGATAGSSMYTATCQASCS

| SMILES | EC50 [nM] | Emax [%] |
| --- | --- | --- |
| CC1(c2ccc(Cl)cc2F)Oc2cccc(C3=CCN(Cc4nc5ccc(C(=O)O)cc5n4C[C@@H]4CCO4)CC3)c2O1 (stereo partly drawn) [Example 2, 2-((4-(2-(4-chloro-2-fluorophenyl)-2-methylbenzo[d][1,3]dioxol-4-yl)-3,6-dihydropyridin-1(2H)-yl)methyl)-1-(((S)-oxetan-2-yl)methyl)-1H-benzo[d]imidazole-6-carboxylic acid] | 0.92 | 110 |
| N#Cc1ccc(CSc2nc(C3=CCN(Cc4nc5ccc(C(=O)O)cc5n4C[C@@H]4CCO4)CC3)ccc2F)c(F)c1 [Example 6, (S)-2-((6-(4-cyano-2-fluorobenzyl)thio-5-fluoro-3′,6′-dihydro-[2,4′-bipyridin]-1′(2′H)-yl)methyl)-1-(oxetan-2-ylmethyl)-1H-benzo[d]imidazole-6-carboxylic acid] | 0.85 | 108 |
| CC(Oc1cccc(C2=CCN(Cc3nc4ccc(C(=O)O)cc4n3C[C@@H]3CCO3)CC2)n1)c1ccc(Cl)cc1F (stereo partly drawn) [Example 3] | 1.38 | 106 |
| N#Cc1ccc(CSc2cccc(C3=CCN(Cc4nc5ccc(C(=O)O)cc5n4C[C@@H]4CCO4)CC3)n2)c(F)c1 [Example 5, (S)-2-((6-(4-cyano-2-fluorobenzyl)thio-3′,6′-dihydro-[2,4′-bipyridin]-1′(2′H)-yl)methyl)-1-(oxetan-2-ylmethyl)-1H-benzo[d]imidazole-6-carboxylic acid] | 1.93 | 110 |
| C[C@]1(c2ccc(Cl)cc2F)Oc2cccc(C3=CCN(Cc4nc5ccc(C(=O)O)nc5n4C[C@@H]4CCO4)CC3)c2O1 [Example 7, 2-((4-((S)-2-(4-chloro-2-fluorophenyl)-2-methylbenzo[d][1,3]dioxol-4-yl)-3,6-dihydropyridin-1(2H)-yl)methyl)-3-(((S)-oxetan-2-yl)methyl)-3H-imidazo[4,5-b]pyridine-5-carboxylic acid] | 0.45 | 107 |
| C[C@]1(c2ccc(Cl)cc2F)Oc2cccc(C3=CCN(Cc4nc5ccc(C(=O)O)cc5n4C[C@@H]4CCO4)CC3)c2O1 [Example 4, 2-((4-((S)-2-(4-chloro-2-fluorophenyl)-2-methylbenzo[d][1,3]dioxol-4-yl)-3,6-dihydropyridin-1(2H)-yl)methyl)-1-(((S)-oxetan-2-yl)methyl)-1H-benzo[d]imidazole-6-carboxylic acid] | 0.12 | 104 |
| N#Cc1ccc(COc2cccc(C3=CCN(Cc4nc5ccc(C(=O)O)cc5n4C[C@@H]4CCO4)CC3)n2)c(F)c1 [Example 1] | 0.12 | 110 |

What follows are compounds tested against T2, hERG potassium ion channel (Homo sapiens, UniProt Q12809) (assay: Blocking effect on hERG potassium currents, automated patch clamp in HEK293-hERG cells). Conditions: automated patch clamp (Patchliner).
T2 construct: expressed in transfected cells
T2 sequence (Q12809 whole entry): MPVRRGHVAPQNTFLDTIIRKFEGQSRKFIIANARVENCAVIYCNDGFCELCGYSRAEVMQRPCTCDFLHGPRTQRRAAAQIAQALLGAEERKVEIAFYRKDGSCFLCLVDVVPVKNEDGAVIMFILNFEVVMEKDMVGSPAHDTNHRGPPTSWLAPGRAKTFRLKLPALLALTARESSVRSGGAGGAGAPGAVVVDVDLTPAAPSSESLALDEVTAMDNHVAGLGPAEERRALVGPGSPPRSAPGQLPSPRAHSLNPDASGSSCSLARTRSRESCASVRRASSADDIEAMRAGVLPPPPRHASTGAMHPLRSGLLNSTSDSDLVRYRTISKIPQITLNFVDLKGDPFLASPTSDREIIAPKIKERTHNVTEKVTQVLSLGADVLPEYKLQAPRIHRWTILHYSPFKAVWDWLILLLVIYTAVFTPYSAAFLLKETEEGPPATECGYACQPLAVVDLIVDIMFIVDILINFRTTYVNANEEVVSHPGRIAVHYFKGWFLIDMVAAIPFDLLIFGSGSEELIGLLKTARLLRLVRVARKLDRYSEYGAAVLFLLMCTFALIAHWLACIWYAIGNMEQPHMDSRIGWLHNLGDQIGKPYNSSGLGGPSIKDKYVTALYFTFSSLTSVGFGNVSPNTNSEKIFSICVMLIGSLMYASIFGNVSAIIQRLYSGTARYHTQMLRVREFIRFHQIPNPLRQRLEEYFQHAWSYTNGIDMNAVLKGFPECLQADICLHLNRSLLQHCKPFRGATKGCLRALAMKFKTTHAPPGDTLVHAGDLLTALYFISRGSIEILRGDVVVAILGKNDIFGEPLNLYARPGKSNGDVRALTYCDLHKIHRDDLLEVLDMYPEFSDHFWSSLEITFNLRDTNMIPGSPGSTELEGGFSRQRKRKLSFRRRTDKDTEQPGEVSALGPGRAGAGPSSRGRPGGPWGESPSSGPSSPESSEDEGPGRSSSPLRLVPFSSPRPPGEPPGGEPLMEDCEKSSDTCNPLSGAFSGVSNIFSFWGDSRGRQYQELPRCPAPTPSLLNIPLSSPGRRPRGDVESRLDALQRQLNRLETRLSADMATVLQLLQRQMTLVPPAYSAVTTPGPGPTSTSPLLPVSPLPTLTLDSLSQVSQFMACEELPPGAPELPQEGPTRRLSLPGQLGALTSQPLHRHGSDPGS
Assay type: cell-based
Protocol: The blocking effect of hERG potassium currents by the compounds of the present disclosure was tested in a stable cell strain transfected with an hERG potassium channel using an automated patch clamp.
HEK293 cell lines were transfected with pCDNA3.1(+) from which the hERG gene had been constructed, and then stably-expressed monoclonal HEK293-hERG cell strains were selected by addition of G418. Stably-expressed HEK293-hERG cell strains were subcultured at a density of 1:4 in an MEM/EBSS medium (10% FBS, […] G418, 1% MEM non-essential amino acid solution (100×), 1% sodium pyruvate solution) and subjected to an automated patch clamp experiment within 48-72 h after the start of the culture. On the day of experiment, the cells were digested with […] pancreatin (life technologies, 12563-029), collected by centrifugation and resuspended in an extracellular fluid (140 mM NaCl, 4 mM KCl, 1 mM MgCl2, 2 mM CaCl2, 5 mMD glucose monohydrate, 10 mM HEPES, pH 7.4, 298 mOsmol) to prepare a cell suspension. The cell suspension was placed on the cell bank of the Patchliner instrument that transferred the cells to the chip (NPC-16) using a negative pressure controller. […] The currents at various concentrations of the compound and in the blank control were analyzed by data analysis software provided by HEAK EPC10 patch clamp amplifier (Nanion) and Pathlinersoftware and Pathcontrol HTsoftware. […]

| SMILES | IC50 [nM] |
| --- | --- |
| C[C@]1(c2ccc(Cl)cc2F)Oc2cccc(C3=CCN(Cc4nc5ccc(C(=O)O)cc5n4C[C@@H]4CCO4)CC3)c2O1 [Example 4, 2-((4-((S)-2-(4-chloro-2-fluorophenyl)-2-methylbenzo[d][1,3]dioxol-4-yl)-3,6-dihydropyridin-1(2H)-yl)methyl)-1-(((S)-oxetan-2-yl)methyl)-1H-benzo[d]imidazole-6-carboxylic acid] | 22000 |

— patent publication US12590081B2, “Fused imidazole derivatives, preparation method and medicinal use thereof” (Jiangsu Hengrui Pharmaceuticals Co., Ltd., priority 2020, dated 2026)
